Data published in patent EP2929883A1, “Pyrazole derivatives as dihydroorotate dehydrogenase (DHODH) inhibitors” (INSTITUT PASTEUR, priority 2014, dated 2015).
Converted amounts (≈) assume the structure as drawn.

Tested on: measles virus
Test: microbe, parasite or virus in culture
Details: Measles morbillivirus, 24 h

Row | SMILES | MIC50
1 | CCOc1nn(-c2ccc(C3CC3)cn2)c(C)c1Oc1ccccc1 [example 92, 5-cyclopropyl-2-(3-ethoxy-5-methyl-4-phenoxy-1H-pyrazol-1-yl)pyridine] | 0.05 to 0.5 µM (≈ 0.0168 to 0.168 µg/mL)
2 | COc1ccc(-n2nc(OC(C)C)c(Oc3c(F)cccc3F)c2C)nn1 [example 174, 3-(4-(2,6-difluorophenoxy)-3-isopropoxy-5-methyl-1H-pyrazol-1-yl)-6-methoxypyridazine] | 0.05 to 0.5 µM (≈ 0.0188 to 0.188 µg/mL)
3 | CCOc1ccc(-n2nc(OC(C)C)c(Oc3c(F)cccc3F)c2C)nn1 [example 174A, 3-(4-(2,6-difluorophenoxy)-3-isopropoxy-5-methyl-1H-pyrazol-1-yl)-6-ethoxypyridazine] | 0.05 to 0.5 µM (≈ 0.0195 to 0.195 µg/mL)
4 | COc1ccc(-n2nc(OC(C)C)c(Oc3c(F)cccc3F)c2C)nc1 [example 126, 2-(4-(2,6-difluorophenoxy)-3-isopropoxy-5-methyl-1H-pyrazol-1-yl)-5-methoxypyridine] | 0.05 to 0.5 µM (≈ 0.0188 to 0.188 µg/mL)
5 | CCOc1nn(-c2ncc(CC)cn2)c(C)c1Oc1ccccc1C(F)(F)F [example 82, 2-(3-ethoxy-5-methyl-4-(2-(trifluoromethyl)phenoxy)-1H-pyrazol-1-yl)-5-ethylpyrimidine] | 0.5 to 5 µM (≈ 0.196 to 1.96 µg/mL)
6 | Cc1cc(Br)cnc1-n1nc(OC(C)C)c(Oc2c(F)cccc2F)c1C [example 85, 5-bromo-2-(4-(2,6-difluorophenoxy)-3-isopropoxy-5-methyl-1H-pyrazol-1-yl)-3-methylpyridine] | 0.5 to 5 µM (≈ 0.219 to 2.19 µg/mL)
7 | CCc1ccc(-n2nc(OC(C)C)c(Oc3c(F)cccc3F)c2C)cn1 [example 129, 5-(4-(2,6-difluorophenoxy)-3-isopropoxy-5-methyl-1H-pyrazol-1-yl)-2-ethylpyridine] | 0.0005 to 0.05 µM (≈ 0.000187 to 0.0187 µg/mL)
8 | Cc1nn(-c2ccc(Br)cn2)c(OC(C)C)c1Oc1c(F)cccc1F [example 60, 5-bromo-2-(4-(2,6-difluorophenoxy)-5-isopropoxy-3-methyl-1H-pyrazol-1-yl)pyridine] | > 5 µM
9 | Cc1c(Oc2c(F)cccc2F)c(OC(C)C)nn1-c1ncc(Br)cn1 [example 58, 5-bromo-2-(4-(2,6-difluorophenoxy)-3-isopropoxy-5-methyl-1H-pyrazol-1-yl)pyrimidine] | 0.0005 to 0.05 µM (≈ 0.000213 to 0.0213 µg/mL)
10 | CC(C)Oc1nn(-c2ccc(C3CC3)cn2)cc1Oc1ccccc1 [example 71, 5-cyclopropyl-2-(3-isopropoxy-4-phenoxy-1H-pyrazol-1-yl)pyridine] | 0.05 to 0.5 µM (≈ 0.0168 to 0.168 µg/mL)
11 | CCOc1nn(-c2cc(C)ccn2)c(C)c1Cc1ccccc1 [example 32, 2-(4-benzyl-3-ethoxy-5-methyl-1H-pyrazol-1-yl)-4-methylpyridine] | 0.5 to 5 µM (≈ 0.154 to 1.54 µg/mL)
12 | CCc1cnc(-n2nc(OCCO)c(Cc3ccccc3)c2C)nc1 [example 193, 2-(4-benzyl-1-(5-ethylpyrimidin-2-yl)-5-methyl-1H-pyrazol-3-yloxy)ethanol] | 0.05 to 0.5 µM (≈ 0.0169 to 0.169 µg/mL)
13 | CCOc1nn(-c2ncc(CC)cn2)c(C)c1C(=O)c1ccccc1 [example 150, (3-ethoxy-1-(5-ethylpyrimidin-2-yl)-5-methyl-1H-pyrazol-4-yl)(phenyl)methanone] | 0.5 to 5 µM (≈ 0.168 to 1.68 µg/mL)
14 | CCOc1nn(-c2ncc(CC)cn2)c(C)c1-c1ccc(F)cc1F [example 154, 2-(4-(2,4-difluorophenyl)-3-ethoxy-5-methyl-1H-pyrazol-1-yl)-5-ethylpyrimidine] | > 5 µM
15 | CCOc1nn(-c2ncc(CC)cn2)c(C)c1Sc1ccccc1 [example 152, 2-(3-ethoxy-5-methyl-4-(phenylthio)-1H-pyrazol-1-yl)-5-ethylpyrimidine] | 0.05 to 0.5 µM (≈ 0.017 to 0.17 µg/mL)
16 | CCOc1nn(-c2ncc(CC)cn2)c(C)c1Oc1ccc(C(F)(F)F)cc1 [example 83, 2-(3-ethoxy-5-methyl-4-(4-(trifluoromethyl)phenoxy)-1H-pyrazol-1-yl)-5-ethylpyrimidine] | > 5 µM
17 | CCOc1nn(-c2ccc(Br)cn2)c(C)c1Cc1ccccc1 [example 41, 2-(4-benzyl-3-ethoxy-5-methyl-1H-pyrazol-1-yl)-5-bromopyridine] | > 5 µM
18 | CC(C)Oc1nn(-c2ncc(C3CC3)cc2F)cc1Oc1ccccc1F [example 66, 5-cyclopropyl-3-fluoro-2-(4-(2-fluorophenoxy)-3-isopropoxy-1H-pyrazol-1-yl)pyridine] | 0.0005 to 0.05 µM (≈ 0.000186 to 0.0186 µg/mL)
